Assay [1] deals with HT29 (human colorectal adenocarcinoma) cells. In words: MTT viability assay, HT29. Type of assay: cell-based. An excerpt:
(§1) To investigate whether the compounds have an antitumor activity, we performed in vitro viability assays against a panel of cancer cell lines: HT29 (human colorectal adenocarcinoma), HeLa (human cervical carcinoma), IGROV-1 (human ovarian carcinoma), MCF7 (human breast cancer), PC-3 (human prostate adenocarcinoma), and Jurkat J6 (human […]). The I407 (human embryonic intestinal) and 3T3 (mouse embryonic fibroblast) cells were used as controls. The growth inhibitory concentration was determined by incubating the cells with increasing concentrations (0.01–500 μM) of the compounds for 24 h. Data obtained from cell growth assays were elaborated to assess the concentration of cell viability (IC50) and selectivity indices (SI), and the results are shown in Table 2 and Table 3, respectively.
(§2) HT29 human colorectal adenocarcinoma cells, HeLa human cervix adenocarcinoma cells, MCF7 human breast adenocarcinoma cells, PC-3 human prostate adenocarcinoma cells, J6 Jurkat Clone E6-1 acute T cell leukemia, the healthy I407 human intestine cells, and mouse embryonic fibroblast 3T3 fibroblasts as controls cell lines were purchased from American Type Culture Collection (ATCC, Manassas, VA). The human ovarian cancer cell line IGROV1 has been kindly provided by Prof. Colnaghi (Istituto Nazionale Tumori (IRCCS) (Milano, Italy). Cells were cultured in RPMI 1640 medium (Labtek Eurobio, Milan, Italy), supplemented with 10% FCS (Euroclone, Milano, Italy) and 2 mM L-glutamine (Sigma-Aldrich, Milano, Italy), at 37 °C, and a 5% CO2 atmosphere. The compounds were dissolved in DMSO in a 30–40 mM stock solution. In cell treatments, the final DMSO concentration never exceeded 0.1%.
(§3) Cells were seeded at 1.5 × 10^4 cells/well in a 96-well culture plastic plate (Sarsted, Milan, Italy), and after 24 h of growth were exposed to increasing concentrations of each distinct compound (from 0.010 μM to 500 μM) solubilized in RPMI 1640 medium. MTT assay was performed according to the literature. In brief, after 24 h of treatment, the culture medium was replaced with 0.1 mL of 3-(4,5-dimethylthiazolyl-2)-2,5-diphenyltetrazolium bromide (MTT, Sigma-Aldrich, Milano, Italy) dissolved in PBS at the concentration of 0.2 mg/mL, and samples were incubated for 2 h at 37 °C. The absorbance at 570 nm was measured using a multiwell plate reader (Tecan, Männemorf, Switzerland), and data were analyzed by Prism GraphPad software, and expressed as IC50 μM.

The subject of assay [2] is CDKN1B, CDKN1A and Bax transcription in HT29 cells. As to the kind of experiment: Quantitative real-time PCR of CDKN1B, CDKN1A, Bax. Type of assay: cell-based, human. The conditions noted are these: HT29, 5 μM, 6 h, normalized to G3PDH, vs. control. The protocol: To verify whether the epigenetic modifications were related to changes in gene expression, we proceeded with the qtRT-PCR analysis and western blot of related protein products. Transcription levels of CDKN1B, CDKN1A, and Bax were analysed by RT-PCR performed on cDNA of HT29 control and treated with 5 μM of 5 for 6 h.
24 h after seeding, HT29 cells have been treated with 5 µM 5 for 6 h. Total RNA has been isolated by RNeasy Mini kit (Qiagen, Hilden, Germany) according to the manufacturer’s protocol. 1 μg of RNA has been reverse-transcribed with RevertAid First Strand cDNA Synthesis Kit (Fermentas, Ontario, Canada) by using oligo(dT) primers. The cDNA has been analyzed by quantitative Real-Time PCR (qRT-PCR), by employing the LightCycler FastStart DNA Master SYBR Green I Kit and the LightCycler 2.0 instrument (Roche Diagnostics, Manheim, Germany). Gene expression has been quantified by ΔΔCT method, by using G3PDH as the housekeeping gene. The following primers were used: 5′-[…]-3′ (forward) and 5′-[…]-3′ (reverse) for G3PDH detection, 5′-[…]-3′ (forward) and 5′-[…]-3′ (reverse) for p27 detection 5′-[…]-3′(forward) and 5′-[…]-3′ (reverse) for p21 WAF1 detection, 5′-GATGCGTCCACCAAGAAGC-3′ (forward) and 5′-CCGCCACAAAGATGGTCAC -3′ (reverse) for Bax detection.

Assay [3] concerns MCF7 (human breast cancer) cells. In words: MTT viability assay, MCF7. It is filed as cell-based. Conditions: Homo sapiens, MCF7; MTT, 24 h.
From the text: as §1, §2, §3
(Tetrazolium dyes change colour on reduction, which living cells bring about.)

Assay [4] relates to p27, p21 and Bax proteins in HT29 cells. In words: Western blot of p27, p21, Bax proteins. Type of assay: cell-based, human. The conditions noted are these: HT29, 5 μM, 24 h. The protocol: P27, p21, and Bax proteins expressions were analysed by western blot in control HT29 and treated with 5 μM of 5 for 24 h.
HT29 cells were seeded in 25 cm^2 flasks at a density of 2 × 10^4 cells/cm^2, and after 24 h, they were treated with 5 μM of compound 5. After 24 h, both treated and control cells were washed twice with PBS and lysed in RIPA buffer [50 mMTris/HCl, 150 mMNaCl, SDS (1% v/v), Triton X-100 (1% v/v), 1 mM EDTA, pH 7.6]. Cell lysates were centrifuged at 12,000× g for 20 min, and the protein concentration was determined by using the Bio-Rad protein assay method (Bio-Rad, Hercules, CA, USA). The proteins were detected resolving samples on a 12% gel in Tris-Glycine buffer at 200 V for 50 min. Western Blot was performed in transfer buffer at 100 V for 1 h. The nitrocellulose membrane was incubated with primary antibodies for rabbit anti-p21 (Millipore, Billerica, MA, USA) or rabbit anti-p27 (Millipore, Billerica, MA) or mouse anti-Bax (Millipore, Billerica, MA, USA) or mouse anti-α tubulin (Invitrogen, Walthman, MA, USA) for 1 h. Detection of immunoreactive bands was performed by using a rabbit or mouse HRP-conjugated secondary antibody (GE Healthcare, Milan, Italy), followed by Amersham ECL Plus Western Blotting Detection System (GE Healthcare, Milan, Italy). Densitometry analysis of immunoreactive bands was done by Fluor-S Max MultiImager (Bio-Rad, Hercules, CA, USA). Relative quantification of bands was performed by using an α-tubulin signal as control.
For orientation: Immunoblotting shows a protein as a band on a membrane.

As a reminder, the IC50 is the midpoint of a concentration-inhibition curve. Read a high IC50 as a need for much substance. For the molecule `Nc1ccc(CN(Cc2ccc(O)cc2)C(=O)Cc2c[nH]c3ccccc23)cc1` [Compound 5], the “Selectivity Index IC503T3/ IC50HT29” value in assay [1] (3T3 normal cells as reference) came to 12.26. The molecule further gave an IC50 in assay [1] (Homo sapiens, HT-29, MTT, 24 h) of 2.61 ± 0.05 µM. In addition, in assay [2], the “Bax gene expression (fold change)” value turned out to be 2.58 ± 0.11, the “CDKN1A gene expression (fold change)” value is on record as 4.16 ± 0.53 and the CDKN1B gene expression result was “did not modify the gene expression”. In assay [3], this molecule displayed an IC50 greater than 500 µM. In assay [4], the Bax protein expression result is reported as “increase”, the p21 protein expression entry is “increase” and the p27 protein expression entry is listed as “did not modify the expression”.
